Assay results from patent US8524899B2, “Alternative heterocycles for DNA recognition” (California Institute of Technology, priority 2003, dated 2013).

Experiments:
5′-AGWWCT-3′ (W=A, T) = assay: DNase I footprint titration, multiple Hz/Py pairs; assay type: binding
Method: FIG. 17 is a table showing the association equilibrium constant Ka[M^−1] for polyamide oligomers H and K. The reported association constants are the average values obtained from three DNase I footprint titration experiments, with the standard deviation given in parenthesis. Assays were carried out at 22° C. at pH 7.0 in the presence of 10 mM Tris-HCl, 10 mM KCl, 10 mM MgCl2, and 5 mM CaCl2 at pH 7.0.
For polyamides Im-Hz-Py-Py-γ-Im-Hz-Py-Py-β-Dp (oligomer H) and Im-Py-Hz-Py-γ-Im-Py-Hz-Py-β-Dp (oligomer K) the ability of multiple Hz/Py pairs to distinguish poly A,T sequences was tested by varying two DNA base pairs across from the Hz/Py and Py/Hz pairs (bolded in the sequences listed above) within the parent-sequence context, 5′-AGWWCT-3′, (W=A, T) and comparing the relative affinities of the resulting complexes (FIG. 16). Equilibrium association constants (Ka) for polyamide oligomers containing multiple Hp/Py pairs have been reported and are included for comparison with values presented here (FIG. 17). […] The recognition profiles of polyamide oligomers containing multiple Hz/Py pairs (oligomers H and K) are similar to those reported for multiple Hp/Py pairs.
Footprinting Experiments.—Plasmids pDHN1 and pDEH10 were constructed and 5′-radiolabeled as previously described. […]

[1] = system: EcoRI/PvuII restriction fragment of plasmid pPWF2 (5′-TGRACA-3′); assay: Quantitative DNase I footprint titration, R•S position, plasmid pPWF2; assay type: binding
Description: FIG. 9 illustrates the equilibrium association constants Ka[M^−1] and specificities for polyamide oligomers D-F, R, S, and V on plasmids pPWF2 and pCAB1 (R•S position).
When replacing PyPy, PyIm, and PyHp dimers with BiPy (as in oligomer D), BiIm (as in oligomer E), and BiHp constructs (as in oligomer F), respectively, the question arises whether a) the benzimidazole ring is capable of cooperating with the imidazole ring on the opposite strand of the hairpin polyamide to specifically recognize a C•G base pair according to the binding model and the general pairing rules, and b) whether the steric and electronic peculiarities of the benzimidazole ring disturb the binding ability of the adjacent heterocycle. In order to address this question for the given polyamide design, the recognition behavior of the benzimidazole-containing polyamides was probed in two of the six base pair positions R•S and X•Y of the recognition sequence (5′-TGRACA-3′ and 5′-TGGXCA-3′ for oligomers D and F; 5′-TGRCAA-3′ and 5′-TGGXAA-3′ for oligomer E; FIG. 6) and compared with the DNA-binding ability of the related all five-membered oligomers R, S, and V at the same recognition sequences.
(§1) Evaluation of the DNA recognition properties of the new ligands oligomers D, E, and F at the imidazole/benzimidazole position (referred to as R•S position) should reveal the sequence preference of the benzimidazole ring. The binding properties at the neighboring ring position (referred to as X•Y position) were expected to disclose whether the recognition capabilities of the adjacent internal five-membered ring are disturbed by the benzimidazole moiety. To examine the consequences of the ring replacement for DNA binding in terms of affinity and specificity, the benzimidazole-containing hairpin polyamides oligomers D, E, and F were evaluated by quantitative DNase I footprint titrations and the results compared to those from related oligomers R, S, and V, which were investigated under identical conditions. Quantitative DNase I footprint titration experiments (10 mm Tris-HCl, 10 mm KCl, 10 mm MgCl2, 5 mm CaCl2, pH 7.0, 22° C., equilibration time: 12 h) were performed on ^32P-3′-labeled EcoRI/PvuII restriction fragments of plasmids pPWF2 and pCAB1 (to probe the R•S position, FIG. 7); and pAU2 and pCAB2 (to probe the X•Y position, FIG. 8). Equilibrium association constants (Ka) for the polyamide oligomers at the binding sites of interest were determined as described above in Example 3.

[2] = system: EcoRI/PvuII restriction fragment of plasmid pAU2 (5′-TGGXCA-3′); assay: Quantitative DNase I footprint titration, X•Y position, plasmid pAU2; assay type: binding; settings: match and mismatch sites
Description: FIG. 10 illustrates the equilibrium association constants Ka[M^−1] and specificities for polyamide oligomers D-F, R, S, and V on plasmids pAU2 and pCAB2 (X•Y position). […]
as §1, with “The binding properties at the neighboring ring position (referred to as X•Y position) were expected to disclose whether the recognition capabilities of the adjacent internal five-membered ring are disturbed by the benzimidazole moiety.” left out

[3] = system: 32P-3′-labeled EcoRI/PvuII restriction fragment of plasmid pDR1 (sites 5′-TGTCTA-3′, 5′-TGTTTA-3′, 5′-TGTATA-3′, 5′-TGTGTA-3′); assay: Quantitative DNase I footprint titration on pDR1 restriction fragment; assay type: binding
Method: FIG. 4 illustrates the equilibrium association constants Ka[M^−1] for Polyamide Oligomers A-C, N, Q, and P. The reported association constants are the average values obtained from three DNase I footprint titration experiments, with the standard deviation for each data set indicated in the experiments. Assays were carried out at 22° C. at pH 7.0 in the presence of 10 mM Tris-HCl, 10 mM KCl, 10 mM MgCl2, and 5 mM CaCl2 with an equilibration time of 12 h. Specificities are give in brackets under the Ka values and calculated as Ka (match)/Ka (mismatch).
To examine whether an imidazo[4,5-b]pyridine unit Ip can replace a five-membered imidazole ring Im within an eight-ring hairpin polyamide regarding DNA binding affinity and specificity, polyamide oligomer A and its related all five-membered ring hairpin oligomer N were evaluated by DNase I footprint titrations under identical conditions. Quantitative DNase I footprint titration experiments (10 mM Tris-HCl, 10 mM KCl, 10 mM MgCl2, 5 mM CaCl2, pH 7.0, 22° C., equilibration time: 12 h) were performed on a ^32P-3′-labeled EcoRI/PvuII restriction fragment of plasmid pDR1 0 (FIG. 2). This DNA fragment contains four 6-base pair binding sites which differ at one position, 5′-TGTCTA-3′,5′-TGTTTA-3′,5′-TGTATA-3′, and 5′-TGTGTA-3′. The latter one was regarded as the possible match site having a G•C base pair under the Ip/Py or Im/Py pair, respectively.
Construction of plasmid DNA. The plasmid pDR1 was constructed by hybridization of the two oligonucleotides 5′-GATCAGGCTGTC-[…]-GCTGCTGTTTATGGACG-GCTGCTGTATATGGACGG-CTGGGCGA-3′ (SEQ ID NO:1) and 5′-AGCTTCGC-[…]-[…]-3′ (SEQ ID NO:2) followed by ligation into the BamHI/HinDIII restriction fragment of pUC19 using T4 DNA ligase. The resultant plasmid was then used to transform E. coli XL-1 Blue Supercompetent cells. Ampicillin-resistant white colonies were selected from 25 mL Luria-Bertani agar plates containing […] ampicillin, treated with XGAL and IPTG solutions and grown overnight at 37° C. Cells were harvested after overnight growth at 37° C. Large-scale plasmid purification was performed with Qiagen, purification kits. The presence of the desired insert was determined by dideoxy sequencing. DNA concentrations were determined at 260 nm using the relationship 1 OD unit) 50 μg/mL duplex DNA.
Preparation of 3′-End-Labeled DNA Restriction Fragments. The plasmid pDR1 was linearized with EcoRI and PVuII and treated with the Klenow fragment of DNA […], [R-^32P]-dATP, and [R-^32P]-TTP for 3′-end labeling. The labeled 3′-fragment was purified on a 7% nondenaturing polyacrylamide gel (5% cross-linkage) and the desired 284 base pair band isolated after visualization by autoradiography. The DNA was precipitated with 2-propanol, the pellet washed, lyophilized, and resuspended in RNase-free H2O. Chemical sequencing reactions were performed according to published protocols. (Troschütz, R.; Lückel, A. Arch. Pharm., 325, 617-619, 1992.)
DNase I Footprinting. All reactions were carried out in a volume of 400 μL according to published procedures. Quantitation by storage phosphor autoradiography and determination of equilibrium association constants were as previously described. (Trauger, J. W.; Dervan, P. B. Methods Enzymol., 340, 450-466, 2001.)

Stability at acidic pH = assay type: physicochemical

CN(C)CCCNC(=O)CCNC(=O)c1cc(NC(=O)c2ccc3nc(-c4cc(NC(=O)c5nc(NC(=O)CCCNC(=O)c6cc(NC(=O)c7ccc8nc(-c9cc(NC(=O)c%10nccn%10C)cn9C)[nH]c8c7O)cn6C)cn5C)cn4C)[nH]c3c2O)cn1C [K]
specificity for match sequence 5′-AGTACT-3′ over 5′-AGAACT-3′ and 5′-AGATCT-3′ (5′-AGWWCT-3′ (W=A, T)): poor site selectivity

CNC(=O)c1cc(NC(=O)c2ccc3nc(-c4c(O)c(NC(=O)c5nc(NC(=O)[C@H](N)CCNC(=O)c6cc(NC(=O)c7cc(NC(=O)c8nc(NC(=O)c9nccn9C)cn8C)cn7C)cn6C)cn5C)cn4C)[nH]c3c2)cn1C [F]
match site Ka, R•S position ([1]; 5′-TGRACA-3′ match site, pH 7.0, 22° C., 12 h): 2.5e+10 M⁻¹
match site affinity compared with related all five-membered oligomer, R•S position ([1]; D vs R, F vs V): six to seven-fold higher
single base pair mismatch specificities compared with related oligomer, R•S position ([1]; D vs R, F vs V): comparable
binding affinities and specificities compared with related oligomers R, V, X•Y position [2]: same order of magnitude

CNC(=O)c1cc(NC(=O)c2cc(NC(=O)c3cc(NC(=O)c4cc(NC(=O)[C@H](N)CCNC(=O)c5cc(NC(=O)c6ccc7nc(-c8cc(NC(=O)c9nccn9C)cn8C)[nH]c7c6O)cn5C)cn4C)cn3C)cn2C)cn1C [B]
selectivity of T•A over A•T ([3]; 5′-TGTTTA-3′ vs A•T site): 18 fold
binding at C•G site ([3]; C•G site (5′-TGTCTA-3′), for Q concentration range up to 200 nM): No binding was observed
lower affinity at G•C mismatch site 5′-TGTGTA-3′ ([3]; relative to match site 5′-TGTTTA-3′): at least 80 fold
equilibrium association constant Ka ([3]; site 5′-TGTTTA-3′ (T•A), pH 7.0, 22° C., equilibration 12 h): 5.7e+08 M⁻¹
stability at acidic pH (Stability at acidic pH): stable

CN(C)CCCNC(=O)CCNC(=O)c1cc(NC(=O)c2cc(NC(=O)c3ccc4nc(-c5nc(NC(=O)CCCNC(=O)c6cc(NC(=O)c7cc(NC(=O)c8ccc9nc(-c%10nccn%10C)[nH]c9c8O)cn7C)cn6C)cn5C)[nH]c4c3O)cn2C)cn1C [H]
specificity for match sequence 5′-AGTACT-3′ over 5′-AGAACT-3′ and 5′-AGATCT-3′ (5′-AGWWCT-3′ (W=A, T)): greater than 14 fold
